Experimental data from patent publication US12246034B2, “Animal feed supplement and method” (CAN TECHNOLOGIES, INC., priority 2014, dated 2025).
Like-named read-outs stand apart in the source and are kept apart here.

Key:
sows [1] = tested on: sows
Protocol: A field trial was conducted on a commercial farm in Denmark with 650 highly productive Danbred sows (Landrace x Yorkshire) inseminated with a pure line Duroc boar, between Nov. 17, 2014 and Jan. 16, 2015. A total of 139 sows (total number before analyzes) were included in the trial, divided over 3 subsequent sow groups farrowing over a time span of 6 weeks. For all analyzes SAS software (version 9.3, SAS Institute Inc., Cary, N.C.) was used. Sows received a dry meal transition feed (from gestation to lactation), fed from day 111 of gestation till day 5 of lactation, and were allocated to one of the two treatment groups based on parity. […] The total amount of calcium was equal between both experimental treatments. Number born alive (NBA), stillborn and mummies, litter birth weight, as well as back fat of the sows before farrowing (day 110 of gestation) and at weaning (day 24 of lactation) were measured. Litter weights at 24 hours and 3 days after birth were measured as well. On day 3 after birth blood samples were taken from 6 piglets (2 biggest, 2 medium and 2 smallest) from 65 litters of their tails when they were cut and analyzed on immunoglobulin G (IgG) concentration. Placentas of the sows were collected after the farrowing process was finished, stored in freezers and afterwards scored on redness for an indication of the vascularization of these placentas.

sows [2] = conditions: for Probability of a higher Vitality score: scored within 30 seconds after birth; for Average weight at weaning: piglets
Protocol: A trial was conducted at the Sterksel Research farm in the Netherlands (part of Wageningen University Research). A total of 207 sows were used in the trial allocated based on parity over 6 treatments (n=34). […] Calcium levels were the same in all diets.
(§1) Until farrowing, sows received a fixed amount of feed (3.25 kg from day 107-113 and 2.7 kg/sow/day from day 113 till farrowing). During lactation the sows were fed the diets according to a step-up feeding schedule applied (increasing with 0.5 kg/sow/day) the same over the 6 treatments aiming at a peak intake of 7.5 kg/sow/day. Piglets were weaned from the sow at 27 days of age. Performance of sows (e.g. weight, backfat, piglets born alive, stillborn piglets, mortality of piglets) and piglets (e.g. weight at birth, after 48 hours and weaning) was measured on all sows and litters. A subset of sows (19-20 per treatment) was examined more in detail to get insight in the possible mode of action of nitrate. On this subset, blood samples were collected within 4 minutes after birth from 2 piglets out of every 4 piglets born. Blood gasses of umbilical cord blood were analyzed using the i-STAT handheld (Abbott). Vitality of piglets was scored within 30 seconds after birth according to Baxter et al. (2008) with 1 being the lowest and 4 being the highest score for vitality.

[3] = for pCO2 - Measured value / pH / pO2 - Measured value: umbilical cord blood piglets
Source text: as §1

[4] = 0.03% nitrate in lactation diet
[5] = 0.06% nitrate in lactation diet
[6] = 0.09% nitrate in lactation diet
[7] = 0.12% nitrate in lactation diet
[8] = 0.15% nitrate in lactation diet
[9] = across 0.03-0.15% nitrate in feed
[10] = across 0.03-0.15% nitrate in lactation diet
[11] = across 0.03-0.15% nitrate, P<0.05

SMILES: O=[N+]([O-])O [Nitrate, nitrate]
- NBA (Number Born Alive) (sows [1]; 0.1% Bolifor CNF in transition feed, LS Means ± SEM): increased
- NBD (Number Born Death), stillborn piglets (sows [1]; 0.1% Bolifor CNF in transition feed, log transformed, back-transformed to absolute values): decreased
- Colostrum, CI (Colostrum Intake) (sows [1]; 0.1% Bolifor CNF, calculated colostrum intake): No differences were found
- Aver. birth weight born alive pigs (sows [2]; [4]): 1308 grams
- Average livability % (sows [2]; [4]): 76.1%
- Average mortality % (sows [2]; [4]): 16.5%
- Average piglet weight after 48 hours (sows [2]; [4]): 1.611 kg
- Probability born alive (sows [2]; [4]): 0.95
- Probability livability (sows [2]; [4]): 0.85
- Probability mortality (sows [2]; [4]): 0.10
- Probability weaned (sows [2]; [4]): 0.91
- Total born (sows [2]; [4]): 16.8
- Total born alive (sows [2]; [4]): 15.2
- Total born mummified (sows [2]; [4]): 0.6
- Total still born (sows [2]; [4]): 1.6
- Total weaned (sows [2]; [4]): 12.3
- total birth weight litter life born piglets (sows [2]; [4]): 19.5 kg
- total litter weight weaning (sows [2]; [4]): 91.8 kg
- Probability of a higher Vitality score (sows [2]; [4]): 0.70
- Aver. birth weight born alive pigs (sows [2]; [5]): 1320 grams
- Average livability % (sows [2]; [5]): 78.3%
- Average mortality % (sows [2]; [5]): 16.2%
- Average piglet weight after 48 hours (sows [2]; [5]): 1.598 kg
- Probability born alive (sows [2]; [5]): 0.97
- Probability livability (sows [2]; [5]): 0.86
- Probability mortality (sows [2]; [5]): 0.10
- Probability weaned (sows [2]; [5]): 0.91
- Total born (sows [2]; [5]): 16.8
- Total born alive (sows [2]; [5]): 15.7
- Total born mummified (sows [2]; [5]): 0.7
- Total still born (sows [2]; [5]): 1.1
- Total weaned (sows [2]; [5]): 12.4
- total birth weight litter life born piglets (sows [2]; [5]): 20.3 kg
- total litter weight weaning (sows [2]; [5]): 91.8 kg
- Probability of a higher Vitality score (sows [2]; [5]): 0.74
- Aver. birth weight born alive pigs (sows [2]; [6]): 1329 grams
- Average livability % (sows [2]; [6]): 81.3%
- Average mortality % (sows [2]; [6]): 12.7%
- Average piglet weight after 48 hours (sows [2]; [6]): 1.621 kg
- Probability livability (sows [2]; [6]): 0.89
- Probability mortality (sows [2]; [6]): 0.07
- Probability weaned (sows [2]; [6]): 0.94
- Total born (sows [2]; [6]): 16.1
- Total born mummified (sows [2]; [6]): 0.5
- Total still born (sows [2]; [6]): 1.2
- total birth weight litter life born piglets (sows [2]; [6]): 20.2 kg
- total litter weight weaning (sows [2]; [6]): 96.9 kg
- Probability of a higher Vitality score (sows [2]; [6]): 0.80
- Aver. birth weight born alive pigs (sows [2]; [7]): 1326 grams
- Average livability % (sows [2]; [7]): 80.0%
- Average mortality % (sows [2]; [7]): 14.0%
- Average piglet weight after 48 hours (sows [2]; [7]): 1.640 kg
- Probability born alive (sows [2]; [7]): 0.96
- Probability livability (sows [2]; [7]): 0.88
- Probability mortality (sows [2]; [7]): 0.08
- Probability weaned (sows [2]; [7]): 0.93
- Total born (sows [2]; [7]): 17.1
- Total born alive (sows [2]; [7]): 15.8
- Total born mummified (sows [2]; [7]): 0.5
- Total still born (sows [2]; [7]): 1.3
- Total weaned (sows [2]; [7]): 13.0
- total birth weight litter life born piglets (sows [2]; [7]): 20.8 kg
- total litter weight weaning (sows [2]; [7]): 98.6 kg
- Probability of a higher Vitality score (sows [2]; [7]): 0.78
- Aver. birth weight born alive pigs (sows [2]; [8]): 1355 grams
- Average livability % (sows [2]; [8]): 79.0%
- Average mortality % (sows [2]; [8]): 14.8%
- Average piglet weight after 48 hours (sows [2]; [8]): 1.692 kg
- Probability born alive (sows [2]; [8]): 0.96
- Probability livability (sows [2]; [8]): 0.87
- Probability mortality (sows [2]; [8]): 0.09
- Probability weaned (sows [2]; [8]): 0.92
- Total born (sows [2]; [8]): 16.6
- Total born alive (sows [2]; [8]): 15.3
- Total born mummified (sows [2]; [8]): 0.3
- Total still born (sows [2]; [8]): 1.3
- Total weaned (sows [2]; [8]): 12.6
- total birth weight litter life born piglets (sows [2]; [8]): 21.0 kg
- total litter weight weaning (sows [2]; [8]): 96.8 kg
- Probability of a higher Vitality score (sows [2]; [8]): 0.79
- Total litter weight at weaning on increasing nitrate addition (sows [2]; [9]): significantly (P<0.05) improved
- Vitality score of the piglets on increasing nitrate addition (sows [2]; [9]): significantly (P<0.05) improved
- livability, effect of higher nitrate levels (sows [2]; [10]): increase
- mortality, effect of higher nitrate levels (sows [2]; [10]): tended to lower
- weaned piglets per litter, effect of higher nitrate levels (sows [2]; [10]): more
- average piglet birth weight with increasing nitrate levels (sows [2]; [11]): higher
- average piglet weight at 48 h with increasing nitrate levels (sows [2]; [11]): higher
- total liter birth weight with increasing nitrate levels (sows [2]; [11]): higher
- Probability of weaned piglets with increasing nitrate inclusion (sows [2]; across 0.03-0.15% nitrate, P<0.10): improved
- Probability born alive (sows [2]; in vivo): 0.96
- Total born alive (sows [2]; in vivo): 14.9
- Total weaned (sows [2]; in vivo): 12.7
- Average weight at weaning (sows [2]; [4]): 7.439 kg
- Average weight at weaning (sows [2]; [5]): 7.321 kg
- Average weight at weaning (sows [2]; [6]): 7.472 kg
- Average weight at weaning (sows [2]; [7]): 7.550 kg
- Average weight at weaning (sows [2]; [8]): 7.608 kg
- pCO2 - Measured value ([3]; 0.03% nitrate in sow diet): 34.1 mmHg
- pH ([3]; 0.03% nitrate in sow diet): 7.5
- pO2 - Measured value ([3]; 0.03% nitrate in sow diet): 33.8 mmHg
- pCO2 - Measured value ([3]; 0.06% nitrate in sow diet): 34.5 mmHg
- pH ([3]; 0.06% nitrate in sow diet): 7.5
- pO2 - Measured value ([3]; 0.06% nitrate in sow diet): 35.4 mmHg
- pCO2 - Measured value ([3]; 0.09% nitrate in sow diet): 34.9 mmHg
- pH ([3]; 0.09% nitrate in sow diet): 7.5
- pO2 - Measured value ([3]; 0.09% nitrate in sow diet): 34.5 mmHg
- pCO2 - Measured value ([3]; 0.12% nitrate in sow diet): 34.5 mmHg
- pH ([3]; 0.12% nitrate in sow diet): 7.5
- pO2 - Measured value ([3]; 0.12% nitrate in sow diet): 35.6 mmHg
- pCO2 - Measured value ([3]; 0.15% nitrate in sow diet): 34.8 mmHg
- pH ([3]; 0.15% nitrate in sow diet): 7.5
- pO2 - Measured value ([3]; 0.15% nitrate in sow diet): 35.3 mmHg
- pO2 values with increasing nitrate addition ([3]; umbilical cord blood, across 0.03-0.15% nitrate): linearly improved
